The Kinase Knowledgebase extract (Sharma et al. 2016)
Where “and” joins values, the source holds several entries; their conditions need not be identical. Equal values may be shown once.

Each molecule was assayed against PIK3CG (human) (UniProt P48736) (assay: Inhibition of PIK3CG Kinase Activity).
Sequence of PIK3CG (human) (P48736 whole entry, looked up): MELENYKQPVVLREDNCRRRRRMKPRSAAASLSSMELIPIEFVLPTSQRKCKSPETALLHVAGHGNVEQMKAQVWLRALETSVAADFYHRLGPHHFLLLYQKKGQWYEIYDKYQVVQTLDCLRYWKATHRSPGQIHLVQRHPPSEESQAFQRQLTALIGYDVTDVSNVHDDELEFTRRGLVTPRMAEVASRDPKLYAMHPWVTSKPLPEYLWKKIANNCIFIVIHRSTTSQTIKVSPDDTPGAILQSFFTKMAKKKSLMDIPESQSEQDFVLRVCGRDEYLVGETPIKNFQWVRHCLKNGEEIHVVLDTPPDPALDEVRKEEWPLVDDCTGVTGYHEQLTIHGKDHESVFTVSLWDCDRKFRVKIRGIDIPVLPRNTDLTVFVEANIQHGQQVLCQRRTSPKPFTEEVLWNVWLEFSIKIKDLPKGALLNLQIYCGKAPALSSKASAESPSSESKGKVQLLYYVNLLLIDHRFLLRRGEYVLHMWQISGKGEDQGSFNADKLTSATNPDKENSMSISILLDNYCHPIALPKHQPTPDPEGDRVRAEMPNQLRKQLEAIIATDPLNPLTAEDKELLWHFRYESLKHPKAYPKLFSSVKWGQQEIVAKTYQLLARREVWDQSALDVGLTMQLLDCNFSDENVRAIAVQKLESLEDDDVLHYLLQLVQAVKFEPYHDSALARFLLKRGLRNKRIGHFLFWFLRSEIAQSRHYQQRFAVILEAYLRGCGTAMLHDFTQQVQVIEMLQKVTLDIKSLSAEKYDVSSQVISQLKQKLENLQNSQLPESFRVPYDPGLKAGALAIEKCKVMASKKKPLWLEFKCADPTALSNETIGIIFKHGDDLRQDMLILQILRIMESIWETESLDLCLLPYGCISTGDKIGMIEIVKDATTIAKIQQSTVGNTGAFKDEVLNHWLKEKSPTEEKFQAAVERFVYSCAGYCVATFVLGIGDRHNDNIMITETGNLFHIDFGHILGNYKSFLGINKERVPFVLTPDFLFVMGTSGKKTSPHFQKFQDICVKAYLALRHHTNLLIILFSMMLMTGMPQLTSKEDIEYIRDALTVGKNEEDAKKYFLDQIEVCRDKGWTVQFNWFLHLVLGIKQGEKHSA

SMILES | Ki
CC[C@H]1c2nc(-c3cnc(OC)c(OC)c3)ccc2C(=O)N1c1cnn(CC(F)(F)F)c1 | 100 to 490 nM
Cc1cc(-c2cncc([S+](C)[O-])c2)nc2c1C(=O)N(c1cnn(CC(F)(F)F)c1)C2(C)C (configuration not stated) | 100 to 490 nM and < 100 nM
COc1cc(-c2ccc3c(n2)CN(c2ccc(N4CC[C@@H](F)C4)nc2)C3=O)cnc1OC | 100 to 490 nM
CCOCCOc1ncc(-c2cc(C)c3c(n2)CN(c2cnn(CC(F)(F)F)c2)C3=O)cc1OC | 100 to 490 nM
COc1cc(-c2ccc3c(c2)CN(c2cccc(C#N)c2)C3=O)cnc1OC | 100 to 490 nM
COc1cc(-c2ccc3c(c2)CN(c2cncc(C#N)c2)C3=O)cnc1OC | 100 to 490 nM
O=C1c2ccc(-c3cncc(OC(F)F)c3)nc2CN1c1cc[nH]n1 | 100 to 490 nM
COCCOCn1cc(N2Cc3nc(-c4cnc(OC)c(OC)c4)ccc3C2=O)cn1 | < 100 nM
COc1cc(-c2cc(C)c3c(n2)CN(c2cncc(OC(F)F)c2)C3=O)cnc1OC | < 100 nM
COc1cc(-c2ccc3c(n2)[C@@H](C)N(c2cnn(CC#N)c2)C3=O)cnc1OC | < 100 nM
Cc1cc(-c2cncc(OCC(F)F)c2)nc2c1C(=O)N(c1cc[nH]n1)C2C (configuration not stated) | 100 to 490 nM
COc1cc(-c2ccc3c(n2)CN(c2cnn(Cc4cn(C)cn4)c2)C3=O)cnc1OC | < 100 nM
COc1cc(-c2cc(C)c3c(c2)CN(c2cnn(CC(F)(F)F)c2)C3=O)cnc1OC | < 100 nM
COc1cc(-c2ccc3c(c2)CN(c2cc(C)ns2)C3=O)cnc1OC | 100 to 490 nM
COc1cc(-c2cc(C)c3c(c2)CN(c2cnn([C@H](CO)C(F)(F)F)c2)C3=O)cnc1OC | < 100 nM
COc1cc(N2Cc3nc(-c4cnc(OC)c(OC)c4)cc(C)c3C2=O)cnc1CO | < 100 nM
COc1cc(-c2ccc3c(n2)CN(c2cnn(Cc4ccc(Cl)nc4)c2)C3=O)cnc1OC | < 100 nM
COc1cc(-c2ccc3c(n2)CN(c2cccc(CC#N)c2)C3=O)cnc1OC | < 100 nM
COc1cc(-c2ccc3c(n2)C(C)N(c2ccn(C[C@H](C)O)n2)C3=O)cnc1OC (some centres not stated) | < 100 nM
COc1cc(-c2ccc3c(n2)CN(c2cnn(CCO)c2)C3=O)cnc1OC | < 100 nM

SMILES | Ki
COc1cc(-c2cc(C)c3c(n2)[C@@]2(CCCO2)N(c2cnn(CC(F)(F)F)c2)C3=O)cnc1OC | < 100 nM
COc1cc(-c2ccc3c(n2)[C@H](N2CCOCC2)N(c2cnn(CC(F)(F)F)c2)C3=O)cnc1OC | < 100 nM
COc1cc(-c2ccc3c(n2)CN(c2ccc(=O)n(CC(F)(F)F)c2)C3=O)cnc1OC | < 100 nM
Cc1cc(-c2cncc(S(C)(=O)=O)c2)nc2c1C(=O)N(c1cnn(CC(F)(F)F)c1)C2C (configuration not stated) | < 100 nM
CCOc1ccc(N2Cc3nc(-c4cnc(OC)c(OC)c4)ccc3C2=O)cn1 | 100 to 490 nM
CCOC1(C)c2nc(-c3cnc(OC)c(OC)c3)cc(C)c2C(=O)N1c1cnn(CC(F)(F)F)c1 (configuration not stated) | < 100 nM
COc1cc(-c2cc(C)c3c(n2)CN(c2cncc(CC#N)c2)C3=O)cnc1OC | < 100 nM
CCn1cnc(N2Cc3cc(-c4cnc(OC)c(OC)c4)ccc3C2=O)n1 | < 100 nM
CCNC(=O)c1cncc(-c2cc(C)c3c(n2)C(C)(C)N(c2cnn(CC(F)(F)F)c2)C3=O)c1 | < 100 nM
CCC1c2nc(-c3cnc(OC)c(OC)c3)ccc2C(=O)N1c1cc(COC)n(CC)n1 (configuration not stated) | 100 to 490 nM
COc1cncc(-c2cc(C)c3c(n2)CN(c2ccn(CC(C)(C)O)n2)C3=O)c1 | < 100 nM
COc1cc(-c2cc(C)c3c(n2)CN(c2ccn(C)n2)C3=O)cnc1OC | < 100 nM
COc1ccc(-c2ccc3c(n2)CN(c2cnn(CC#N)c2)C3=O)c(C)n1 | 100 to 490 nM
COc1cc(-c2ccc3c(n2)CN(c2cnn(CCN(C)C)c2)C3=O)cnc1OC | 100 to 490 nM
COc1cc(-c2cc(C)c3c(n2)CN(c2ccn(C4CC4)n2)C3=O)cnc1OC | < 100 nM
COc1ccc(-c2cc(C)c3c(n2)CN(c2cnn(CC#N)c2)C3=O)c(OC)n1 | < 100 nM
COCCOc1ncc(-c2cc(C)c3c(n2)[C@@H](C)N(c2ccn(C)n2)C3=O)cc1OC | < 100 nM
COc1cc(-c2ccc3c(n2)CN(c2cnn(Cc4ccc(CO)cc4)c2)C3=O)cnc1OC | < 100 nM
Cc1cc(-c2cc(OC(F)(F)F)ccc2Cl)nc2c1C(=O)N(c1cnn(CC(F)(F)F)c1)C2 | 100 to 490 nM
Cc1cc(-c2cncc(OC(F)F)c2)nc2c1C(=O)N(c1cc[nH]n1)C2 | < 100 nM

SMILES | Ki
COc1cc(-c2ccc3c(n2)C(N2CC[C@@H](F)C2)N(c2cnn(CC(F)(F)F)c2)C3=O)cnc1OC (some centres not stated) | < 100 nM
COc1cc(-c2cc(C)c3c(n2)C(C)(C)N(c2cnn(CC(F)(F)F)c2)C3=O)cnc1C | < 100 nM
CCOc1cc(-c2cc(C)c3c(n2)CN(c2ccon2)C3=O)cnc1OC | < 100 nM
COc1ncc(-c2ccc3c(n2)CN(c2cnn(CC(F)(F)F)c2)C3=O)cc1OC(F)F | < 100 nM
CCc1ncc(-c2cc(C)c3c(n2)CN(c2cnn(CC(F)(F)F)c2)C3=O)cc1OC | < 100 nM
COc1ncc(-c2ccc3c(n2)CN(c2cnn(CC#N)c2)C3=O)cn1 | 100 to 490 nM
CCn1nc(N2Cc3cc(-c4cnc(OC)c(OC)c4)ccc3C2=O)cc1C | 100 to 490 nM
COc1cncc(-c2cc(C)c3c(n2)C(C)(C)N(c2ccn(C[C@H](C)O)n2)C3=O)c1 | < 100 nM
COc1cc(-c2cc(C)c3c(n2)CN(c2nc(CO)cs2)C3=O)cnc1OC | < 100 nM
CCn1ccc(N2Cc3nc(-c4cnc(OC)c(OC(C)C)c4)cc(C)c3C2=O)n1 | < 100 nM
COc1cc(-c2cc(C)c3c(n2)CN(c2cccc(C4(C#N)CC4)c2)C3=O)cnc1OC | < 100 nM
COc1cc(-c2ccc3c(n2)CN(c2ccc(N4CCOCC4)nc2)C3=O)cnc1OC | 100 to 490 nM
CCOc1ncc(-c2cc(C)c3c(n2)C(CC)N(c2cnn(CC(F)(F)F)c2)C3=O)cc1OC (configuration not stated) | < 100 nM
COc1ncc(-c2cc(C)c3c(n2)CN(c2cnn(CC(F)(F)F)c2)C3=O)cc1OCC(F)F | < 100 nM
COCCOc1ncc(-c2ccc3c(n2)CN(c2cnn(CC#N)c2)C3=O)cc1OC | < 100 nM
CCOc1cncc(-c2cc(C)c3c(n2)C(C)N(c2cnn(CC(F)(F)F)c2)C3=O)c1 (configuration not stated) | < 100 nM
COc1cncc(-c2cc(C)c3c(n2)C2(CC=CC2)N(c2cnn(CC(F)(F)F)c2)C3=O)c1 | < 100 nM
Cc1cc(-c2cncc(C(=O)NCC3CC3)c2)nc2c1C(=O)N(c1cnn(CC(F)(F)F)c1)C2(C)C | < 100 nM
COc1ncc(-c2cc(C)c3c(n2)C(C)(C)N(c2cnn(CC(F)(F)F)c2)C3=O)cc1C(=O)N(C)C | < 100 nM
COc1cncc(-c2cc(C)c3c(c2)C(C)N(c2cnn(CC(F)(F)F)c2)C3=O)c1 (configuration not stated) | < 100 nM

Next, values leading:

Ki | SMILES
< 100 nM | COc1cc(-c2cc(C)c3c(n2)CN(c2cnn(C4CC4)c2)C3=O)cnc1OC
< 100 nM | CNC(=O)c1cncc(-c2cc(C)c3c(n2)CN(c2cnn(CC(F)(F)F)c2)C3=O)c1
< 100 nM | COc1cc(-c2cc(C)c3c(n2)CN(c2cnccn2)C3=O)cnc1OC
< 100 nM | COc1cc(-c2cc(Cl)c3c(n2)CN(c2cnn(CC#N)c2)C3=O)cnc1OC
< 100 nM | COc1cc(-c2ccc3c(n2)[C@H](OC)N(c2cnn(CC(F)(F)F)c2)C3=O)cnc1OC
< 100 nM | COc1cncc(-c2cc(C)c3c(n2)C(C)N(c2cn[nH]c2)C3=O)c1 (configuration not stated)
< 100 nM | COc1cc(-c2cc(C)c3c(n2)CN(c2cn(C)cn2)C3=O)cnc1OC
< 100 nM | Cc1cc(-c2cnc(C)c(OCC(F)F)c2)nc2c1C(=O)N(c1ccn([C@H]3CCOC3)n1)C2
< 100 nM | COCCOCCOc1ncc(-c2cc(C)c3c(c2)CN(c2cnn(CC#N)c2)C3=O)cc1OC
< 100 nM | COc1ncc(-c2cc(C)c3c(n2)C(C)(C)N(c2cnn(CC(F)(F)F)c2)C3=O)cc1C(=O)NC(C)C
< 100 nM | Cc1cc(-c2cncc(OC(F)F)c2)nc2c1C(=O)N(c1ccnc(OCC(F)F)c1)C2
< 100 nM | COc1cncc(-c2cc(C)c3c(n2)C(C)(C)N(c2cnn(CC#N)c2)C3=O)c1
< 100 nM | Cc1cc(-c2cncc(F)c2)nc2c1C(=O)N(c1cnn(CC#N)c1)C2
< 100 nM | COc1cc(-c2cc(C)c3c(n2)CN(c2ccnc(OCC(F)F)c2)C3=O)cnc1OC
< 100 nM | CCOc1ncc(-c2cc(C)c3c(c2)C(C)N(c2cnn(CC(F)(F)F)c2)C3=O)cc1OC (configuration not stated)
< 100 nM | COc1cc(-c2cc(C)c3c(n2)CN(c2csc(C)c2)C3=O)cnc1OC
< 100 nM | Cc1cc(-c2cncc(OCCF)c2)nc2c1C(=O)N(c1cnn(CC(F)(F)F)c1)C2
< 100 nM | COc1cc(-c2cc(C)c3c(n2)C2(CCCO2)N(c2cnn(CC(F)(F)F)c2)C3=O)cnc1OC(C)C (configuration not stated)
< 100 nM | COc1cc(-c2ccc3c(n2)CN(c2cnn([C@H](C)C#N)c2)C3=O)cnc1OC

Ki | SMILES
< 100 nM | COc1cc(-c2ccc3c(n2)CN(c2cnn(CC(N)=O)c2)C3=O)cnc1OC
< 100 nM | COc1ccc(-c2ccc3c(n2)CN(c2cnn(CC#N)c2)C3=O)c(OC)n1
< 100 nM | COc1cc(-c2ccc3c(n2)C(C)(C)N(c2cnn(CC#N)c2)C3=O)cnc1OC
< 100 nM | CCC1c2nc(-c3cnc(OC)c(OC)c3)ccc2C(=O)N1c1cnn(CC(F)(F)F)c1 (configuration not stated)
< 100 nM | COC1c2nc(-c3cncc(OCC(F)F)c3)cc(C)c2C(=O)N1c1cnn(CC(F)(F)F)c1 (configuration not stated)
< 100 nM | COc1ncc(-c2cc(C)c3c(n2)CN(c2cnn(C(C)(C)C#N)c2)C3=O)cc1OC(C)C
< 100 nM | Cc1cc(-c2cncc(OC(F)F)c2)cc2c1C(=O)N(c1cnn(CC(F)(F)F)c1)C2
< 100 nM | Cc1cc(-c2cnc(C)c(O)c2)nc2c1C(=O)N(c1cnn(CC(F)(F)F)c1)C2
< 100 nM | Cc1cc(-c2cncc(OC(F)F)c2)nc2c1C(=O)N(c1cnn(CC(F)(F)F)c1)C2
< 100 nM | COc1cc(-c2ccc3c(c2)CN(c2cnn(CC#N)c2)C3=O)cnc1OC
< 100 nM | COCn1cc(N2Cc3cc(-c4cnc(OC)c(OC)c4)ccc3C2=O)cn1
< 100 nM | Cc1cc(-c2cnc(F)c(O)c2)nc2c1C(=O)N(c1cnn(CC(F)(F)F)c1)C2(C)C
< 100 nM | COc1cc(-c2ccc3c(n2)CN(c2cnn(CC4(C)COC4)c2)C3=O)cnc1OC
< 100 nM | COc1ncc(-c2cc(C)c3c(n2)CN(c2cnn(CC(F)(F)F)c2)C3=O)cc1OC1CCOCC1
< 100 nM | CCn1ccc(N2Cc3cc(-c4cnc(OC)c(OC)c4)ccc3C2=O)n1
< 100 nM | COc1cc(-c2ccc3c(n2)CN(c2ccc(N4CCN(CCO)CC4)nc2)C3=O)cnc1OC
< 100 nM | CC1c2nc(-c3cccc(OC(F)(F)F)c3)ccc2C(=O)N1c1cnn(CC(F)(F)F)c1 (configuration not stated)
< 100 nM | COCCNC(=O)c1cncc(-c2cc(C)c3c(n2)C(C)(C)N(c2cnn(CC(F)(F)F)c2)C3=O)c1
